Like-named read-outs stand apart in the source and are kept apart here.
What was measured:
[1] = biological target: CYP125 (Mycobacterium tuberculosis, UniProt P9WPP1); assay type: binding; settings: for CYP125 Δλmax (nm) HS: high spin population, '-' = no HS maxima present; for CYP125 Δλmax (nm) LS: low spin population, '-' = no LS maxima present
[2] = biological target: CYP142 (Mycobacterium tuberculosis, UniProt P9WPL5); settings: compound 100 µM, P450 5 µM
[3] = compound 100 µM, P450 5 µM, ratio of low spin to high spin CYP125

CYP125, sequence (P9WPP1 whole entry): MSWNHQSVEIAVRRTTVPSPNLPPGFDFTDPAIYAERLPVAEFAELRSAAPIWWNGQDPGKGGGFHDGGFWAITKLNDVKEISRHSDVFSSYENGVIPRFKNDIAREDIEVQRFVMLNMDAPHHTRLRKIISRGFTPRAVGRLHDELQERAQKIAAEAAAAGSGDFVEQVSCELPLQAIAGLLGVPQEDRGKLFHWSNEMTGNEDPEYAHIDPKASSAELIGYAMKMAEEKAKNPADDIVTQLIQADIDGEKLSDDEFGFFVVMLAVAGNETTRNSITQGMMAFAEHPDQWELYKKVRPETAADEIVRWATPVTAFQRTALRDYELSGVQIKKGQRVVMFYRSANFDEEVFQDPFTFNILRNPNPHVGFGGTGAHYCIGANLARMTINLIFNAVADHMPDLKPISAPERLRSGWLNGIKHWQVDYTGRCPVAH
CYP142, sequence (P9WPL5 whole entry): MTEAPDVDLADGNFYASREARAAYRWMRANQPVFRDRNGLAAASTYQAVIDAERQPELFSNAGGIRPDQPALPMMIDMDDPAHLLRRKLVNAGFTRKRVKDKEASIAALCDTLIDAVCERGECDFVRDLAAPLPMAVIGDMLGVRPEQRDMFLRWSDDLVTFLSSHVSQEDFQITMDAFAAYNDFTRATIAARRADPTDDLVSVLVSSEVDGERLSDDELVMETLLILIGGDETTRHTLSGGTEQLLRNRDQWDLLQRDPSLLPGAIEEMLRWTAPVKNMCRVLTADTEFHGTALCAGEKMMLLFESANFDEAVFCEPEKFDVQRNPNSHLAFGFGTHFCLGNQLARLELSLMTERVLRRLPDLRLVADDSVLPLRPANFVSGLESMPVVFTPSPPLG

Compound | CYP125 Δλmax (nm) HS ([1]; compound 100 µM, P450 5 µM) [nm] | CYP125 Δλmax (nm) LS ([1]; compound 100 µM, P450 5 µM) [nm] | CYP125 LS/HS [1, 3] | CYP142 Δλmax (nm) [2] [nm] | CYP125 LS/HS [1]
3-(Pyridin-4-ylmethyl)aniline [3d] | 3 | 29 | – | – | –
CN(c1ccccc1)c1ccncc1 [2b, N-Methyl-N-phenylpyridin-4-amine] | 1 | 25 | 0.9 | 4 | –
c1ccc(N(c2ccccc2)c2ccncc2)cc1 [2c, N,N-Diphenylpyridin-4-amine] | 2 | 28 | 1 | 4 | –
c1ccc(Oc2ccncc2)cc1 [2d, 4-Phenoxypyridine] | 1 | 25 | 1 | 2 | –
O=S(=O)(c1ccccc1)c1ccncc1 [2e, 4-(Phenylsulfonyl)pyridine] | 0 | – | – | 0 | –
O=C(c1ccccc1)c1ccncc1 [2f] | 0 | – | – | 0 | –
C(=C\c1ccncc1)/c1ccccc1 [2g, (E)-4-Styrylpyridine] | – | 29 | 1.4 | 3 | –
c1ccc(CCc2ccncc2)cc1 [2h, 4-Phenethylpyridine] | 2 | 26 | 1 | 2 | –
COc1cccc(Cc2ccncc2)c1 [3a, 4-(3-Methoxybenzyl)pyridine] | 1 | 27 | 1.1 | 2 | –
COc1ccc(Cc2ccncc2)cc1 [3b, 4-(4-Methoxybenzyl)pyridine] | 1 | 25 | 1 | 2 | –
Nc1ccc(Cc2ccncc2)cc1 [3e] | 3 | 29 | – | 3 | 1.7
Nc1cccc(Nc2ccncc2)c1 [4a, N^1-(Pyridin-4-yl)benzene-1,3-diamine] | 1 | 22 | 0.9 | 3 | –
Nc1ccc(Nc2ccncc2)cc1 [4b, N^1-(Pyridin-4-yl)benzene-1,4-diamine] | 1 | 31 | 1.3 | 3 | –
COC(=O)c1cccc(Nc2ccncc2)c1 [4c, Methyl/Ethyl 3-(pyridin-4-ylamino)benzoate] | 1 | 27 | 1 | 3 | –
COC(=O)c1ccc(Nc2ccncc2)cc1 [4d, Methyl 4-(pyridin-4-ylamino)benzoate] | 2 | 26 | 1 | 3 | –
O=C(O)c1cccc(Nc2ccncc2)c1 [4e, 3-(Pyridin-4-ylamino)benzoic Acid] | 0 | – | – | 0 | –
O=C(O)c1ccc(Nc2ccncc2)cc1 [4f, 4-(Pyridin-4-ylamino)benzoic Acid] | 1 | – | – | 0 | –
OCc1cccc(Nc2ccncc2)c1 [4g] | 0 | – | – | 1 | –
Brc1cccc(Nc2ccncc2)c1 [4h, N-(3-Bromophenyl)pyridin-4-amine] | – | 31 | 1.4 | 4 | –
Brc1ccc(Nc2ccncc2)cc1 [4i, N-(4-Bromophenyl)pyridin-4-amine] | 2 | 29 | 1.2 | 4 | –
